Data: PMC6297231 (Nature Communications, 2018)

Columns and labels:
Experiment in all cases: Cell viability assay
Type in all cases: cell-based
A375 = conditions: Homo sapiens, A-375, 24 h; A375 (Skin); read-out: AZD5991 24h GI50
Protocol: (§1) Cells were plated at 3000 cells/well in 384-well white plates in corresponding cell growth media. […] Caspase-3/7 activation was subsequently determined using a Caspase-Glo 3/7 Reagent (Promega) and viability was assayed using the CellTiter-Glo Reagent (Promega) as described in manufacturer’s instructions. Dose–response curves for caspase-3/7 activation and viability were plotted and analyzed (including EC50 and GI50 determination) using GraphPad Prism.

Sudhl16 = conditions: Homo sapiens, SU-DHL-16, 24 h; Sudhl16 (NHL); read-out: AZD5991 24h GI50
Protocol: as §1

KMS12PE = conditions: Homo sapiens, KMS-12-PE, 24 h; KMS12PE (MM); read-out: AZD5991 24h GI50
Protocol: as §1

LK2 = conditions: Homo sapiens, LK-2, 24 h; LK2 (Lung); read-out: AZD5991 24h GI50
Protocol: as §1

RI1 = conditions: Ri-1, 24 h; RI1 (NHL); read-out: AZD5991 24h GI50
Protocol: as §1

H1568 = conditions: NCI-H1568, 24 h; H1568 (Lung); read-out: AZD5991 24h GI50
Protocol: as §1

MOLP8 = conditions: Homo sapiens, MOLP-8, 24 h; MOLP8 (MM); read-out: AZD5991 24h GI50

Compound `Cc1c2c(nn1C)CSCc1cc(n(C)n1)CSc1cc(c3ccccc3c1)OCCCc1c(C(=O)O)n(C)c3c-2c(Cl)ccc13` (atropisomer, axis not shown; (Ra)) [(Ra)-7] has a GI50 (A375) of 13.5 µM, a GI50 (Sudhl16) of 119 nM and a GI50 (KMS12PE) of 329 nM. It also gave a GI50 (LK2) greater than 30 µM, a GI50 (RI1) of 28.2 µM and a GI50 (H1568) of 272 nM. The GI50 (MOLP8) was 52 nM.
